Laboratory results as given in publication PMC10227015, “From a drug repositioning to a structure-based drug design approach to tackle acute lymphoblastic leukemia” (Nature Communications, 2023).
Where two headings read alike, the source gives them in different places.

Assays:
CCRF-CEM cell line = assay: dCK cellular assay: CCRF-CEM proliferation in the presence of dT and dC; assay type: cell-based, human; details: Homo sapiens; Figure 2a, CCRF-CEM cell line, mean; read-out: IC50 (nM) (Cell Prolif)
How it was run: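 Two conditions in T-ALL CCRF-CEM cells: compound only, and compound with thymidine blocking de novo synthesis and deoxycytidine rescuing via dCK. Metabolic dye fluorescence (560/590 nm) gives % proliferation vs DMSO; IC50s, mean ± SD of at least three triplicate runs.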

dCK-C3S-S74E [1] = biological target: T1, dCK-C3S-S74E (Homo sapiens, UniProt P27707, form not given/S74E)
T1 sequence (P27707 whole entry S74E, form open): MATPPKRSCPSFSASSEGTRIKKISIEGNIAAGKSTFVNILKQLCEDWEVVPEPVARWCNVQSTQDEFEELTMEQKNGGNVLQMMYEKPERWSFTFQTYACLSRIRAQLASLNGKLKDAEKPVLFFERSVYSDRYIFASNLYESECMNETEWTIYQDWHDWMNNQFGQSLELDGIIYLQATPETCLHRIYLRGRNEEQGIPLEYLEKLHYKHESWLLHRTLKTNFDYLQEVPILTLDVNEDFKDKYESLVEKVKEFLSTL

dCK-C3S-S74E [2] = biological target: T1, dCK-C3S-S74E; assay: Enzymatic assay (PK/LDH coupled), dC phosphorylation by dCK in the presence of UTP; assay type: biochemical; details: presence of UTP
How it was run: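 Activation versus inhibition was judged with 1 mM UTP, 200 µM dC and 2 μM dCK-C3S-S74E, using pyruvate kinase/lactate dehydrogenase coupling that tracks NADH fluorescence decrease at 460 nm. Buffer was HEPES pH 7.5 with MgCl2, KCl and DTT. Rates came from linear slopes, expressed relative to compound-free control.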

dCK-C3S-S74E [3] = biological target: T1, dCK-C3S-S74E; assay: Enzymatic assay (PK/LDH coupled), dC phosphorylation by dCK in the presence of ATP; assay type: biochemical
How it was run: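 His-purified dCK-C3S-S74E (100 nM, or 50 nM where indicated) phosphorylated 100 µM dC with 1 mM ATP in 50 mM HEPES pH 7.5, 5 mM MgCl2, 1 mM DTT, 100 mM KCl, coupled via PK/LDH/PEP/300 µM NADH. NADH fluorescence decrease (ex 337/em 460 nm) gave velocities normalized to drug-free control; IC50 by nonlinear regression, triplicates.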

[4] = Acute in vivo toxicity, unique IP injection; details: male, mouse, in vivo; Swiss mice, IP, unique injection; read-out: Maximum tolerated dose
Protocol: (§1) To evaluate the in vivo toxicity selected compounds were injected by intraperitoneal (IP) route to 7 weeks-old male Swiss mice (n = 2) at 10, 20, 40, 50, or 80 mg/kg by unique injection. […] Compounds were administered in their hydrochloride salt forms. Mice were then observed closely for the next one hour, then every hour for 8 h. Observations were continued for 72 h for signs of pain or toxicity such as change in the behavior and in the activity in the cage (decreased locomotion) or change in the appearance (curved back, eyes half-closed, bristle hair, hips hollowed out). In vivo toxicity of compound OR0642 at 40 and 80 mg/kg was also assessed in the NOD-SCID-IL2Rγc null (NSG) mice model for 2 weeks in the presence and absence of dT to confirm the safety of the compound. […]. Blood samples were collected and spun at 10,000 × g prior to collecting the plasma supernatants. All plasma samples were frozen at −80 °C before sample processing. 13 μl of each plasma sample was mixed with 33 μl of acetonitrile to precipitate proteins and extract the compound. Samples were vortexed for 5 min and then placed in an ultrasonic bath for 1 min. The precipitated proteins were sedimented by centrifugation (15,000 × g, 5 min, 16 °C). Supernatants were transferred to a microplate to be analyzed by LC–MS/MS. All samples were analyzed with a UHPLC coupled to a Shimadzu LC-MS 8030 triple quadrupole. The solutions of a standard range, prepared with plasma from untreated mice, were analyzed in the same series of injections.

Swiss male mice = assay: Acute in vivo toxicity, unique IP injection; details: mice, 80 mg/kg/day
Protocol: as §1

[5] = Plasma pharmacokinetics after IP administration; assay type: in vivo; details: male, Swiss, mouse, mice, dose 40 mg/Kg
Protocol: as §1

dCK-C3S-S74E [6] = biological target: T1, dCK-C3S-S74E; assay: Thermal shift assay (TSA)

SMILES	IC50 (CCRF-CEM cell line)	ΔTm (º) (TSA) (dCK-C3S-S74E [1])	ENZYMATIC ASSAY (Activation/Inhibition) (dCK-C3S-S74E [2])	Enzymatic activity (ATP) Mean (% activity) (dCK-C3S-S74E [3]; 0.02 µM)	Enzymatic activity (ATP) Mean (% activity) (dCK-C3S-S74E [3]; 0.04 µM)	Enzymatic activity (ATP) Mean (% activity) (dCK-C3S-S74E [3]; 0.08 µM)	Enzymatic activity (ATP) Mean (% activity) (dCK-C3S-S74E [3]; 0.16 µM)	Enzymatic activity (ATP) Mean (% activity) (dCK-C3S-S74E [3]; 0.31 µM)	Enzymatic activity (ATP) Mean (% activity) (dCK-C3S-S74E [3]; 0.63 µM)	Enzymatic activity (ATP) Mean (% activity) (dCK-C3S-S74E [3]; 1.25 µM)	Enzymatic activity (ATP) Mean (% activity) (dCK-C3S-S74E [3]; 2.5 µM)	Enzymatic activity (ATP) Mean (% activity) (dCK-C3S-S74E [3]; 5 µM)	IC50 (dCK-C3S-S74E [3]; read-out: ENZYMATIC ASSAY IC50, presence of ATP, [dCK] = 50 nM (footnote A))	MTD at 72 h [4]	in vivo tolerance (Swiss male mice)	Cmax [5]	Tmax [5]	half-life ([5]; read-out: T ½ (converted))	ΔTm (º) (TSA) (dCK-C3S-S74E [6]; Figure 2a, mean)	Thermal Shift Assay Mean (ΔTm (º)) (dCK-C3S-S74E [6]; Figure 2b)
CCCN(c1nc(-c2nc(N)cc(N)n2)cs1)c1cc(-c2ccc(OCC(=O)N3CCN(C)CC3)nc2)ccc1C [OR0630]	245 nM	17.35 º	–	–	–	–	–	–	–	–	–	–	–	–	–	–	–	–	–	–
CCCN(c1nc(-c2nc(N)cc(N)n2)cs1)c1cc(-c2ccc(S(=O)(=O)N3CCN(C)CC3)nc2)ccc1C [OR0634]	–	–	I	89.7%	80.2%	45.4%	12.5%	4.0%	2.2%	1.9%	1.6%	1.6%	100 ± 82 nM	> 80 mg/kg	well tolerated	5.5 ± 1.3 µM	1 h	2.15 ± 0.283 h	17.45 º	17.5 º
